Measured values from patent US9927430B2, “Pro-substrates for live cell applications” (PROMEGA CORPORATION, priority 2014, dated 2018).
Entries after “also recorded” stand apart in the source; their conditions may differ.

Test: Furimazine release by hydrolysis at different pH, HPLC at 262 nm
Assay type: physicochemical
Procedure: The effect of pH on the hydrolysis of the disclosed compounds may be useful for high-throughput screening (HTS). The percent furimazine released in 1 mM of PBI-5455 solutions with different pH values ranging from 5.9 to 7.6 were detected over time using HPLC at 262 nm. […] These compounds can be used to support HTS operation methods to enhance the initial brightness by adjusting pH or adding an appropriate nucleophile.
As shown in Example 23, PBI-5455 is stable in slightly acidic buffer for 10 hrs. […] For BRET applications to detect protein-protein and/or ligand-protein interactions, if it is a one-time point reading, the concentration in media could be higher than 100-200 μM.

Q: For CC(=O)NC(CC(=O)O)C(=O)NC(CC(=O)O)C(=O)NC(CC(=O)O)C(=O)N(C)CCN(CCCN1CCOCC1)C(=O)Oc1c(Cc2ccco2)nc2c(Cc3ccccc3)nc(-c3ccccc3)cn12 (centres unmarked) [PBI-5455, Ac-DDD-MOP-C2-FRZ], which “release of furimazine by hydrolysis” value (1 mM solutions, pH values ranging from 5.9 to 7.6, over time, HPLC at 262 nm (FIG. 14)) is on record?
A: pH dependent; also recorded: The higher the pH, the faster the release

Q: And the “stable in buffer (time)” value (slightly acidic buffer)?
A: 10 h
